In patent US20260078341A1, “TREATMENT OF CANCER USING CHIMERIC ANTIGEN RECEPTOR” (Novartis AG, priority 2014, published 2026):
Several values for one entry are separate records, joined by “and”; a condition that tells them apart may be missing. Equal entries are not always repeated. Where two headings read alike, the source gives them in different places. Marks after values point to notes of the source that are not given here.

Key:
[1] = tested on: A/H3N2 strain A/Victoria/361/11; experiment: Seroconversion to heterologous A/H3N2 strain; type: in vivo, human; settings: for Percentage of subjects who seroconvert to heterologous strain A/H3N2 A/Victoria/361/11: 4 weeks after seasonal influenza vaccination
[2] = tested on: A/H1N1/California/07/2009 influenza; experiment: Anti-A/H1N1/California/07/2009 influenza IgG and IgM levels in serum; type: in vivo, human; settings: baseline to 4 weeks post vaccination, vs placebo
Protocol: FIGS. 44A and 44B. Graphic representations of IgG and IgM levels before and after influenza vaccination. Levels of anti-A/H1N1/California/07/2009 influenza IgG and IgM were measured in serum obtained from subjects before and 4 weeks post influenza vaccination.

[3] = tested on: PD-1 positive CD4 and CD8 T cells; type: in vivo, human
[4] = Questionnaires on energy and exercise one year after dosing; type: in vivo, human; settings: 0.5 mg daily dosing cohort
[5] = for Treatment-related AE: Blood cholesterol increased / Treatment-related AE: Conjunctivitis / Treatment-related AE: Diarrhea / Treatment-related AE: Dry mouth / Treatment-related AE: Dyspepsia / Treatment-related AE: Erythema / Treatment-related AE: Fatigue / Treatment-related AE: Headache / Treatment-related AE: Insomnia / Treatment-related AE: Limb discomfort / Treatment-related AE: Low density lipoprotein increased / Treatment-related AE: Mouth ulceration / Treatment-related AE: Mucosal inflammation / Treatment-related AE: Neutropenia / Treatment-related AE: Oral pain / Treatment-related AE: Paresthesia oral / Treatment-related AE: Pruritus / Treatment-related AE: Stomatitis / Treatment-related AE: Thrombocytopenia / Treatment-related AE: Tongue ulceration / Treatment-related AE: Urinary tract infection / Treatment-related AEs: Patients with AE(s) / Treatment-related AEs: Total AE(s): N = 53

## CO[C@H]1C[C@@H]2CC[C@@H](C)[C@@](O)(O2)C(=O)C(=O)N2CCCC[C@H]2C(=O)O[C@H]([C@H](C)C[C@@H]2CC[C@@H](OCCO)[C@H](OC)C2)CC(=O)[C@H](C)/C=C(\C)[C@@H](O)[C@@H](OC)C(=O)[C@H](C)C[C@H](C)/C=C/C=C/C=C/1C [RAD001, (1R,9S,12S,15R,16E,18R,19R,21R,23S,24E,26E,28E,30S,32S,35R)-1,18-dihydroxy-12-{(1R)-2-[(1S,3R,4R)-4-(2-hydroxyethoxy)-3-methoxycyclohexyl]-1-methylethyl}-19,30-dimethoxy-15,17,21,23,29,35-hexamethyl-11,36-dioxa-4-azatricyclo[30.3.1.0^4,9]hexatriaconta-16,24,26,28-tetraene-2,3,10,14,20-pentaone]
[1]; RAD001 0.5 mg daily
  Percentage of subjects who seroconvert to heterologous strain A/H3N2 A/Victoria/361/11: 38%
[1]; RAD001 5 mg weekly
  Percentage of subjects who seroconvert to heterologous strain A/H3N2 A/Victoria/361/11: 39%*
[1]; RAD001 20 mg weekly
  Percentage of subjects who seroconvert to heterologous strain A/H3N2 A/Victoria/361/11: 40%*
[1]; pooled RAD001 cohorts, versus 20% placebo, p=0.007
  H3N2 heterologous strain seroconversion rate: 39%
[2]
  change from baseline in anti-H1N1 influenza IgG and IgM levels: No significant difference
[3]; in vivo
  decrease in PD-1 positive CD8 T cells compared to placebo cohort: 37.4% and 41.4%
[3]; week 6, pooled RAD cohort (n=84), p=0.03
  decrease in PD-1 positive CD4 T cells compared to placebo cohort: 30.2%
[3]; week 12, pooled RAD cohort, p=0.05
  decrease in PD-1 positive CD4 T cells compared to placebo cohort: 32.7%
[4]
  energy and exercise ability as compared to placebo: increased energy and exercise ability
0.5 mg daily dosing cohort
  average RAD001 trough level: 0.9 ng/mL
20 mg weekly dosing cohort
  average RAD001 trough level: 0.7 ng/mL
Dosing regimens used in the immunization study
  trough level of the study regimens relative to oncology and transplant regimens, fold lower: 3-20 fold
[5]; RAD001 0.5 mg daily
  Treatment-related AE: Blood cholesterol increased: 2 (3.8%) n (%)
  Treatment-related AE: Conjunctivitis: 0 n (%)
  Treatment-related AE: Diarrhea: 1 (1.9%) n (%)
  Treatment-related AE: Dry mouth: 0 n (%)
  Treatment-related AE: Dyspepsia: 0 n (%)
  Treatment-related AE: Erythema: 0 n (%)
  Treatment-related AE: Fatigue: 0 n (%)
  Treatment-related AE: Headache: 0 n (%)
  Treatment-related AE: Insomnia: 1 (1.9%) n (%)
  Treatment-related AE: Limb discomfort: 0 n (%)
  Treatment-related AE: Low density lipoprotein increased: 2 (3.8%) n (%)
  Treatment-related AE: Mouth ulceration: 6 (11.3%) n (%)
  Treatment-related AE: Mucosal inflammation: 0 n (%)
  Treatment-related AE: Neutropenia: 0 n (%)
  Treatment-related AE: Oral pain: 0 n (%)
  Treatment-related AE: Paresthesia oral: 2 (3.8%) n (%)
  Treatment-related AE: Pruritus: 0 n (%)
  Treatment-related AE: Stomatitis: 0 n (%)
  Treatment-related AE: Thrombocytopenia: 0 n (%)
  Treatment-related AE: Tongue ulceration: 3 (5.7%) n (%)
  Treatment-related AE: Urinary tract infection: 0 n (%)
  Treatment-related AEs: Patients with AE(s): 22 (41.5%) n (%)
  Treatment-related AEs: Total AE(s): 35 n (%)
[5]; RAD001 5 mg weekly
  Treatment-related AE: Blood cholesterol increased: 2 (3.8%) n (%)
  Treatment-related AE: Conjunctivitis: 2 (3.8%) n (%)
  Treatment-related AE: Diarrhea: 4 (7.5%) n (%)
  Treatment-related AE: Dry mouth: 0 n (%)
  Treatment-related AE: Dyspepsia: 3 (5.7%) n (%)
  Treatment-related AE: Erythema: 2 (3.8%) n (%)
  Treatment-related AE: Fatigue: 2 (3.8%) n (%)
  Treatment-related AE: Headache: 2 (3.8%) n (%)
  Treatment-related AE: Insomnia: 2 (3.8%) n (%)
  Treatment-related AE: Limb discomfort: 2 (3.8%) n (%)
  Treatment-related AE: Low density lipoprotein increased: 1 (1.9%) n (%)
  Treatment-related AE: Mouth ulceration: 2 (3.8%) n (%)
  Treatment-related AE: Mucosal inflammation: 0 n (%)
  Treatment-related AE: Neutropenia: 0 n (%)
  Treatment-related AE: Oral pain: 2 (3.8%) n (%)
  Treatment-related AE: Paresthesia oral: 0 n (%)
  Treatment-related AE: Pruritus: 2 (3.8%) n (%)
  Treatment-related AE: Stomatitis: 0 n (%)
  Treatment-related AE: Thrombocytopenia: 0 n (%)
  Treatment-related AE: Tongue ulceration: 1 (1.9%) n (%)
  Treatment-related AE: Urinary tract infection: 0 n (%)
  Treatment-related AEs: Patients with AE(s): 20 (37.7%) n (%)
  Treatment-related AEs: Total AE(s): 46 n (%)
[5]; RAD001 20 mg weekly
  Treatment-related AE: Blood cholesterol increased: 2 (3.8%) n (%)
  Treatment-related AE: Conjunctivitis: 0 n (%)
  Treatment-related AE: Diarrhea: 1 (1.9%) n (%)
  Treatment-related AE: Dry mouth: 2 (3.8%) n (%)
  Treatment-related AE: Dyspepsia: 2 (3.8%) n (%)
  Treatment-related AE: Erythema: 0 n (%)
  Treatment-related AE: Fatigue: 4 (7.5%) n (%)
  Treatment-related AE: Headache: 9 (17.0%) n (%)
  Treatment-related AE: Insomnia: 1 (1.9%) n (%)
  Treatment-related AE: Limb discomfort: 0 n (%)
  Treatment-related AE: Low density lipoprotein increased: 2 (3.8%) n (%)
  Treatment-related AE: Mouth ulceration: 9 (17.0%) n (%)
  Treatment-related AE: Mucosal inflammation: 2 (3.8%) n (%)
  Treatment-related AE: Neutropenia: 3 (5.7%) n (%)
  Treatment-related AE: Oral pain: 1 (1.9%) n (%)
  Treatment-related AE: Paresthesia oral: 0 n (%)
  Treatment-related AE: Pruritus: 1 (1.9%) n (%)
  Treatment-related AE: Stomatitis: 2 (3.8%) n (%)
  Treatment-related AE: Thrombocytopenia: 2 (3.8%) n (%)
  Treatment-related AE: Tongue ulceration: 0 n (%)
  Treatment-related AE: Urinary tract infection: 2 (3.8%) n (%)
  Treatment-related AEs: Patients with AE(s): 27 (50.9%) n (%)
  Treatment-related AEs: Total AE(s): 109 n (%)
[5]; elderly volunteers, 6 weeks, particularly 0.5 mg daily and 5 mg weekly
  tolerability: well tolerated
